# Test results published in patent US20190002942A1, “ANTIBIOTIC FIIRV 104/18 COMPLEX AND THE ISOLATED INDIVIDUAL FACTORS THEREOF” (Fondazione Istituto Insubrico di Ricerca per la Vita, priority 2015, published 2019).
# Where two headings read alike, the source gives them in different places.
# Experiments:
# [1] = test system: L819 S. aureus Smith ATCC19636; assay: MIC, broth microdilution (CLSI); type: cell-based, Staphylococcus aureus; conditions: Staphylococcus aureus
# Experimental: (§1) Inocula are: 2-5×10^5 CFU/mL for Gram positive and Gram negative bacteria; 10^4 CFU/mL for Candida albicans.
# (§2) The effect of 30% bovine serum is determined under the same experimental conditions.
# (§3) Cultures are incubated at 35° C. in air. After 18-24 hours visual readings are performed and MICs determined. The MIC (Minimal Inhibitory Concentration) is defined as the lower concentration of antibiotic at which there is no visible growth. The strains used are clinical isolates or strains from American Type Culture Collection (ATCC).
# [2] = test system: L100 S. aureus ATCC 6538; assay: MIC, broth microdilution (CLSI); type: cell-based; conditions: Staphylococcus aureus, ATCC6538
# Experimental: as §1, §2, §3
# [3] = test system: L1400 S. aureus MRSA; assay: MIC, broth microdilution (CLSI); type: cell-based; conditions: Staphylococcus aureus
# Experimental: as §1, §2, §3
# [4] = test system: L1577 S. epidermidis; assay: MIC, broth microdilution (CLSI); type: cell-based; conditions: Staphylococcus epidermidis
# Experimental: as §1, §2, §3
# [5] = test system: L1729 S. haemolyticus MDR; assay: MIC, broth microdilution (CLSI); type: cell-based; conditions: Staphylococcus haemolyticus
# Experimental: as §1, §2, §3
# [6] = test system: L1730 S. haemolyticus; assay: MIC, broth microdilution (CLSI); type: cell-based; conditions: Staphylococcus haemolyticus
# Experimental: as §1, §2, §3
# [7] = test system: L3030 A. baumannii; assay: MIC, broth microdilution (CLSI); type: cell-based; conditions: Acinetobacter baumannii
# Experimental: as §1, §2, §3
# [8] = test system: L3294 M. catarrhalis; assay: MIC, broth microdilution (CLSI); type: cell-based; conditions: Moraxella catarrhalis
# Experimental: as §1, §2, §3
# [9] = test system: L44 S. pneumoniae; assay: MIC, broth microdilution (CLSI); type: cell-based; conditions: Streptococcus pneumoniae
# Experimental: as §1, §2, §3
# [10] = test system: L47 E. coli, SKF 12140; assay: MIC, broth microdilution (CLSI); type: cell-based; conditions: Escherichia coli
# Experimental: as §1, §2, §3
# [11] = test system: L49 S. pyogenes C203; assay: MIC, broth microdilution (CLSI); type: cell-based; conditions: Streptococcus pyogenes
# Experimental: as §1, §2, §3
# [12] = test system: L559 E. faecalis; assay: MIC, broth microdilution (CLSI); type: cell-based; conditions: Enterococcus faecalis
# Experimental: as §1, §2, §3
# [13] = test system: L568 E. faecium; assay: MIC, broth microdilution (CLSI); type: cell-based; conditions: Enterococcus faecium
# Experimental: as §1, §2, §3
# [14] = test system: L569 E. faecium VanA; assay: MIC, broth microdilution (CLSI); type: cell-based, Enterococcus faecium; conditions: Enterococcus faecium, L569 E. faecium VanA
# Experimental: as §1, §2, §3
# [15] = test system: L560 E. faecalis VanA; assay: MIC, broth microdilution (CLSI); type: cell-based, Enterococcus faecalis; conditions: Enterococcus faecalis, L560 E. faecalis VanA
# Experimental: as §1, §2, §3
# [16] = test system: L2048 B. cenocepacia; assay: MIC, broth microdilution (CLSI); type: cell-based; conditions: Burkholderia cenocepacia
# Experimental: (§4) Antimicrobial activity of the antibiotic FIIRV 104/18 complex is determined by the broth microdilution method according to the procedures published by the Clinical and Laboratory Standards Institute (CLSI), formerly the National Committee for Clinical Laboratory Standards (NCCLS) (document M07-A9). Inocula are: 2-5×10^5 CFU/mL for Gram positive and Gram negative bacteria; 10^4 CFU/mL for Candida albicans.
# (§5) The media used are: cation adjusted Mueller Hinton broth (CAMHB) for Staphylococci, Enterococci, Moraxella catarrhalis, Escherichia coli; Todd Hewitt broth (THB) for Streptococci; RPMI 1640 Medium for C. albicans. The effect of 30% bovine serum is determined under the same experimental conditions.
# as §3, with “(ATCC). Individual factors of antibiotic FIIRV 104/18 are dissolved in DMSO to obtain a 1000 μg/mL stock solution, and subsequently diluted in water to obtain working solution.” for “(ATCC).”
# [17] = test system: L145 C. albicans; assay: MIC, broth microdilution (CLSI); type: cell-based, Candida albicans; conditions: Candida albicans
# Experimental: as §4, §5
# as §3, with “(ATCC). Individual factors of antibiotic FIIRV 104/18 are dissolved in DMSO to obtain a 1000 μg/mL stock solution, and subsequently diluted in water to obtain working solution.” for “(ATCC).”
# [18] = test system: Gram-positive susceptible, resistant and multi-resistant pathogenic bacteria; assay: Growth inhibition of Gram-positive bacteria (summary); type: cell-based; conditions: Gram positive bacteria: Staphylococci incl. MRSA and MR coagulase-negative, Streptococci, Enterococci incl. VanA
# Experimental: as §4, §5
# as §3, with “(ATCC). Individual factors of antibiotic FIIRV 104/18 are dissolved in DMSO to obtain a 1000 μg/mL stock solution, and subsequently diluted in water to obtain working solution.” for “(ATCC).”
# [19] = test system: HeLa cells; assay: Inhibition of replication of HeLa cells; type: cell-based
# [20] = ATCC19636, L819 S. aureus Smith ATCC19636, CAMHB, read-out: MIC
# [21] = ATCC19636, L819 S. aureus Smith, +30% SB (bovine serum), read-out: MIC
# [22] = L100 S. aureus ATCC 6538, CAMHB, read-out: MIC
# [23] = L1400 S. aureus MRSA, CAMHB, read-out: MIC
# [24] = L1577 S. epidermidis, CAMHB, read-out: MIC
# [25] = L1729 S. haemolyticus MDR, CAMHB, read-out: MIC
# [26] = L1730 S. haemolyticus, CAMHB, read-out: MIC
# [27] = L3030 A. baumannii, read-out: MIC
# [28] = L3294 M. catarrhalis, CAMHB, read-out: MIC
# [29] = L44 S. pneumoniae, THB, read-out: MIC
# [30] = L47 E. coli, SKF 12140, CAMHB, read-out: MIC
# [31] = L49 S. pyogenes C203, THB, read-out: MIC
# [32] = L559 E. faecalis, CAMHB, read-out: MIC
# [33] = L568 E. faecium, CAMHB, read-out: MIC
# [34] = +30% SB (bovine serum), read-out: MIC
# [35] = L2048 B. cenocepacia, read-out: MIC
# [36] = L145 C. albicans, RPMI, inoculum 10^4 CFU/mL, read-out: MIC
SMILES,"MIC [1, 20] [µg/mL]","MIC [1, 21] [µg/mL]","MIC [2, 22] [µg/mL]","MIC [3, 23] [µg/mL]","MIC [4, 24] [µg/mL]","MIC [5, 25] [µg/mL]","MIC [6, 26] [µg/mL]","MIC [7, 27] [µg/mL]","MIC [8, 28] [µg/mL]","MIC [9, 29] [µg/mL]","MIC [10, 30] [µg/mL]","MIC [11, 31] [µg/mL]","MIC [12, 32] [µg/mL]","MIC [13, 33] [µg/mL]","MIC [14, 34] [µg/mL]","MIC ([14]; CAMHB, read-out: MIC) [µg/mL]","MIC [15, 34] [µg/mL]","MIC ([15]; CAMHB, read-out: MIC) [µg/mL]","MIC [16, 35] [µg/mL]",antibacterial activity (in words) [18],further results
"COC(=O)c1c(C)cc2c(c1O)[C@]1(O)C(=O)c3cc4c(c(O)c3C(=O)[C@]1(OC)[C@H](O)C2)C(=O)C=C(NC1O[C@@H](C)[C@H](OC2CC[C@H](O)C(C)O2)[C@@H](O)[C@H]1OC)C4=O (stereo partly drawn) [F797, (6R,6aS,14aR)-methyl 11-[(2S,3R,4R,5R,6S)-4-hydroxy-5-{[(2R,5S,6S)-5-hydroxy-6-methyltetrahydro-2H-pyran-2-yl]oxy}-3-methoxy-6-methyltetrahydro-2H-pyran-2-ylamino]-1,6,8,14a-tetrahydroxy-6a-methoxy-3-methyl-7,9,12,14-tetraoxo-5,6,6a,7,9,12,14,14a-octahydrobenzo[α]tetracene-2-carboxylate]",0.002,0.125,0.008,0.015,0.015,0.015,0.015,16,0.06,0.004,64,0.002,0.25,0.5,2,0.5,0.5,0.125,16,very high antibacterial activity,"MIC [17, 36]: > 128 µg/mL; cytotoxicity (in words) ([19]; HeLa cells): moderate cytotoxicity; IC50 ([19]; Homo sapiens, HeLa): 5 µg/mL"
"COC(=O)c1c(C)cc2c(c1O)[C@]1(O)C(=O)c3cc4c(c(O)c3C(=O)[C@]1(OC)[C@H](O)C2)C(=O)C=C(NC1O[C@@H](C)[C@H](OC2C[C@H](O)[C@H](O)C(C)O2)[C@@H](O)[C@H]1OC)C4=O (stereo partly drawn) [F813, (6R,6aS,14aR)-methyl 11-[(2S,3R,4R,5R,6S)-5-{[(2R,5S,6S)-4,5-dihydroxy-6-methyltetrahydro-2H-pyran-2-yl]oxy}-4-hydroxy-3-methoxy-6-methyltetrahydro-2H-pyran-2-ylamino]-1,6,8,14a-tetrahydroxy-6a-methoxy-3-methyl-7,9,12,14-tetraoxo-5,6,6a,7,9,12,14,14a-octahydrobenzo[α]tetracene-2-carboxylate]",0.125,1,0.125,0.5,0.5,0.5,0.5,128,0.5,0.125,128,0 to 125,4,4,16,4,16,4,64,very high antibacterial activity,"MIC [17, 36]: > 128 µg/mL"
"COC(=O)c1c(C)cc2c(c1O)C1(O)C(=O)c3cc4c(c(O)c3C(=O)C1(OC)[C@H](O)C2)C(=O)C=C(NC1O[C@@H](C)[C@H](OC2C=CC(=O)C(C)O2)[C@@H](O)[C@H]1OC)C4=O (stereo partly drawn) [F793, (6R,6aS,14aR)-methyl 11-[(2S,3R,4R,5R,6S)-4-hydroxy-3-methoxy-6-methyl-5-{[(2S,6S)-6-methyl-5-oxo-5,6-dihydro-2H-pyran-2-yl]oxy}tetrahydro-2H-pyran-2-ylamino]-1,6,8,14a-tetrahydroxy-6a-methoxy-3-methyl-7,9,12,14-tetraoxo-5,6,6a,7,9,12,14,14a-octahydrobenzo[α]tetracene-2-carboxylate]",–,–,–,–,–,–,–,–,–,–,–,–,–,–,–,–,–,–,–,very high antibacterial activity,"MIC ([1]; ATCC19636, L819 S. aureus Smith ATCC19636, CAMHB): 0.5 µg/mL; MIC ([1]; ATCC19636, L819 S. aureus Smith, +30% SB (bovine serum)): 4 µg/mL; MIC [2]: 1 µg/mL; MIC ([3]; MRSA): 0.5 µg/mL; MIC [4]: 0.25 µg/mL; MIC [5]: 1 µg/mL; MIC [6]: 1 µg/mL; MIC [7]: 128 µg/mL; MIC [8]: 1 µg/mL; MIC [9]: 0.06 µg/mL; MIC [10]: > 128 µg/mL; MIC [11]: 0.03 µg/mL; MIC [12]: 0.5 µg/mL; MIC [13]: 1 µg/mL; MIC ([14]; +30% SB (bovine serum)): 16 µg/mL; MIC ([14]; CAMHB): 1 µg/mL; MIC ([15]; +30% SB (bovine serum)): 2 µg/mL; MIC ([15]; CAMHB): 0.5 µg/mL; MIC [16]: 128 µg/mL; MIC [17]: > 128 µg/mL"
